Experimental data published in patent publication US20250263370A1 (Tay Therapeutics Limited, priority 2022, published 2025).
Where “and” joins values, the source holds several entries; their conditions need not be identical. Equal entries are not always repeated.

System: collagen-induced arthritis
Experiment: Collagen-induced arthritis (CIA) model in rats: body weight, paw volume, clinical scores, clinical observations; as to Average detailed clinical score, left hind limb: key of the grades not given here; as to Average detailed clinical score, right hind limb: key of the grades not given here; as to Detailed Clinical Scores, left forelimb: key of the grades not given here; as to Detailed Clinical Scores, left hind limb: key of the grades not given here; as to Detailed Clinical Scores, right forelimb: key of the grades not given here; as to Detailed Clinical Scores, right hind limb: key of the grades not given here; as to Detailed Clinical Scores, score: key of the grades not given here; as to Detailed Clinical Scores: left forelimb: key of the grades not given here; as to Detailed Clinical Scores: left hind limb: key of the grades not given here; as to Detailed Clinical Scores: right forelimb: key of the grades not given here; as to Detailed Clinical Scores: right hind limb: key of the grades not given here; as to Detailed Clinical Scores: score: key of the grades not given here; as to Mean overall clinical score ± SD: key of the grades not given here; as to overall clinical score: key of the grades not given here
Details: for Mean animal paw volume ± SD: group mean; for Animal paw volume percent change: individual animals; for Average detailed clinical score, left forelimb / Average detailed clinical score, left hind limb / Average detailed clinical score, right forelimb / Average detailed clinical score, right hind limb / Average detailed clinical score, score / Mean overall clinical score ± SD / Detailed Clinical Scores, left forelimb / Detailed Clinical Scores, left hind limb / Detailed Clinical Scores, right forelimb / Detailed Clinical Scores, right hind limb / Detailed Clinical Scores, score / Overall clinical score / Detailed Clinical Scores: left forelimb / Detailed Clinical Scores: left hind limb / Detailed Clinical Scores: right forelimb / Detailed Clinical Scores: right hind limb / Detailed Clinical Scores: score: CIA rats; for Detailed Clinical Scores, left forelimb / Detailed Clinical Scores, left hind limb / Detailed Clinical Scores, right forelimb / Detailed Clinical Scores, right hind limb / Detailed Clinical Scores, score / Detailed Clinical Scores: left forelimb / Detailed Clinical Scores: left hind limb / Detailed Clinical Scores: right forelimb / Detailed Clinical Scores: right hind limb / Detailed Clinical Scores: score: individual animals ID 1-8; for Overall clinical score: individual animals #1-8

## CNC(=O)c1cc(C(=O)NC2CC2)cn(Cc2ccccc2)c1=O [GSK620]
Day 13, L paw
  Mean animal paw volume ± SD: 1.38 mL
  Animal paw volume percent change: 5.12% and 1.52% and 12.65% and −0.73% and 4.01% and 2.25% and 4.56% and 3.33%
Day 13, R paw
  Mean animal paw volume ± SD: 1.41 mL
  Animal paw volume percent change: 9.84% and 3.07% and 10.98% and 14.65% and 3.66% and 3.02% and 6.04% and 3.75%
Day 13
  Average detailed clinical score, left forelimb: 0.00
  Average detailed clinical score, left hind limb: 0.00
  Average detailed clinical score, right forelimb: 0.00
  Average detailed clinical score, right hind limb: 0.13
  Average detailed clinical score, score: 0.13
  Mean overall clinical score ± SD: 0 ± 0
  Detailed Clinical Scores, left forelimb: 0
  Detailed Clinical Scores, left hind limb: 0
  Detailed Clinical Scores, right forelimb: 0
  Detailed Clinical Scores, right hind limb: 0 (7×) and 1
  Detailed Clinical Scores, score: 0 (7×) and 1
  Overall clinical score: 0 (7×) and 1
Day 14, L paw
  Mean animal paw volume ± SD: 1.55 mL
  Animal paw volume percent change: 21.65% and 34.98% and 13.44% and −0.37% and 4.01% and 4.87% and 31.18% and 27.78%
Day 14, R paw
  Mean animal paw volume ± SD: 1.67 mL
  Animal paw volume percent change: 37.01% and 14.18% and 12.55% and 54.58% and 4.40% and 3.77% and 49.81% and 36.70%
Day 14
  Average detailed clinical score, left forelimb: 0.00
  Average detailed clinical score, left hind limb: 0.88
  Average detailed clinical score, right forelimb: 0.00
  Average detailed clinical score, right hind limb: 1.13
  Average detailed clinical score, score: 2.00
  Mean overall clinical score ± SD: 2 ± 2
  Detailed Clinical Scores, left forelimb: 0
  Detailed Clinical Scores, left hind limb: 1 and 2 (3×) and 0 (4×)
  Detailed Clinical Scores, right forelimb: 0
  Detailed Clinical Scores, right hind limb: 2 (3×) and 0 (4×) and 3
  Detailed Clinical Scores, score: 3 (2×) and 2 and 0 (3×) and 4 (2×)
  Overall clinical score: 3 (2×) and 2 and 0 (3×) and 4 (2×)
Day 15, L paw
  Mean animal paw volume ± SD: 1.74 mL
  Animal paw volume percent change: 60.24% and 53.99% and 9.49%
Day 15, R paw
  Mean animal paw volume ± SD: 1.86 mL
  Animal paw volume percent change: 61.02% and 59.00% and 7.84%
Day 15
  Average detailed clinical score, left forelimb: 0.00
  Average detailed clinical score, left hind limb: 1.63
  Average detailed clinical score, right forelimb: 0.00
  Average detailed clinical score, right hind limb: 2.00
  Average detailed clinical score, score: 3.63
  Mean overall clinical score ± SD: 4 ± 2
  Detailed Clinical Scores: left forelimb: 0
  Detailed Clinical Scores: left hind limb: 3 (3×) and 0 (2×) and 1 (2×) and 2
  Detailed Clinical Scores: right forelimb: 0
  Detailed Clinical Scores: right hind limb: 3 (3×) and 0 (2×) and 4 and 1 and 2
  Detailed Clinical Scores: score: 6 (3×) and 0 and 4 (2×) and 1 and 2
  Overall clinical score: 6 (3×) and 0 and 4 (2×) and 1 and 2
Day 18, L paw
  Mean animal paw volume ± SD: 2.48 mL
  Animal paw volume percent change: 113.78% and 92.78% and 88.54%
Day 18, R paw
  Mean animal paw volume ± SD: 2.35 mL
  Animal paw volume percent change: 105.91% and 87.36% and 88.63%
Day 18
  Average detailed clinical score, left forelimb: 0.00
  Average detailed clinical score, left hind limb: 3.88
  Average detailed clinical score, right forelimb: 0.00
  Average detailed clinical score, right hind limb: 3.38
  Average detailed clinical score, score: 7.25
  Mean overall clinical score ± SD: 7 ± 1
  Detailed Clinical Scores: left forelimb: 0
  Detailed Clinical Scores: left hind limb: 4 (7×) and 3
  Detailed Clinical Scores: right forelimb: 0
  Detailed Clinical Scores: right hind limb: 4 (6×) and 0 and 3
  Detailed Clinical Scores: score: 8 (6×) and 4 and 6
  Overall clinical score: 8 (6×) and 4 and 6
Day 19, L paw
  Mean animal paw volume ± SD: 2.54 mL
  Animal paw volume percent change: 112.99% and 92.78%
Day 19, R paw
  Mean animal paw volume ± SD: 2.36 mL
  Animal paw volume percent change: 103.54% and 88.12%
Day 19
  Average detailed clinical score, left forelimb: 0.75
  Average detailed clinical score, left hind limb: 3.63
  Average detailed clinical score, right forelimb: 0.25
  Average detailed clinical score, right hind limb: 3.00
  Average detailed clinical score, score: 7.63
  Mean overall clinical score ± SD: 8 ± 2
  Detailed Clinical Scores: left forelimb: 1 (6×) and 0 (2×)
  Detailed Clinical Scores: left hind limb: 4 (5×) and 3 (3×)
  Detailed Clinical Scores: right forelimb: 0 (6×) and 1 (2×)
  Detailed Clinical Scores: right hind limb: 4 (3×) and 3 (4×) and 0
  Detailed Clinical Scores: score: 9 (2×) and 10 and 6 and 5 and 7 (2×) and 8
  Overall clinical score: 9 (2×) and 10 and 6 and 5 and 7 (2×) and 8
Day 21, L paw
  Mean animal paw volume ± SD: 2.53 mL
  Animal paw volume percent change: 112.99% and 90.49%
Day 21, R paw
  Mean animal paw volume ± SD: 2.35 mL
  Animal paw volume percent change: 106.69% and 86.59%
Day 21
  Average detailed clinical score, left forelimb: 0.88
  Average detailed clinical score, left hind limb: 3.63
  Average detailed clinical score, right forelimb: 0.25
  Average detailed clinical score, right hind limb: 3.13
  Average detailed clinical score, score: 7.88
  Mean overall clinical score ± SD: 8 ± 2
  Detailed Clinical Scores: left forelimb: 1 (5×) and 2 and 0 (2×)
  Detailed Clinical Scores: left hind limb: 4 (5×) and 3 (3×)
  Detailed Clinical Scores: right forelimb: 0 (6×) and 1 (2×)
  Detailed Clinical Scores: right hind limb: 4 (3×) and 3 (4×) and 1
  Detailed Clinical Scores: score: 9 (2×) and 11 and 6 (2×) and 7 (2×) and 8
  Overall clinical score: 9 (2×) and 11 and 6 (2×) and 7 (2×) and 8
